Earlier results, collected in US20070191228A1, “Natural herbicide” (priority 2005, published 2007).

What was measured:
[1] = system: large crabgrass (Digitaria sanguimalis); details: Owens 1973
[2] = system: sorghum (Sorghhum bicolor (L.)); details: Owens 1973

N[C@H](CO)CO/C=C/[C@H](N)C(=O)O [Rhizobitoxine, rhizobitoxine]
herbicidal activity [1]: herbicidal
herbicidal activity [2]: herbicidal
